“Also recorded” adds a separate entry of the source. Bridge positions count the residues as written; N and C are the ends. Square brackets hold non-standard residues; d marks the D form. Ends that are not written are not given here. 1Nal = N[C@@H](Cc1cccc2ccccc12)C(=O)O; Sar = CNCC(=O)O
Tests used:
rat model of PRCA = experiment: Rat model of PRCA (anti-EPO antibody-induced anemia); assay type: in vivo
Experimental: The efficacy of Peptide I to correct anemia due to recombinant EPO anti-body induced PRCA was assessed in a rat model of PRCA. […] The rat model of PRCA consisted of induction of anti-EPO antibodies in a rat to yield a model of PRCA. Subsequent to inducing PRCA in rats, the erythropoietic activity of Peptide I, compared to rats treated with recombinant EPO, was evaluated in the rat model of PRCA following weekly administrations of Peptide I or recombinant EPO.
Additionally, administration of Peptide I to rats positive for anti-EPO antibodies allowed evaluation of Peptide I to correct PRCA-induced anemia.
Experiments were also conducted in anemic anti-EPO antibody positive rats to determine if normal hemoglobin levels could be maintained. The anemic anti-EPO antibody positive rats were treated with Peptide I approximately every 4 weeks for a total of additional seven injections. Hemoglobin levels in the Peptide I and vehicle-treated antibody-positive rats were compared to concurrent controls.
EPO-induced PRCA in humans and rats characterized by severe anemia associated with the presence of anti-EPO antibodies, an absence of reticulocytes, and limited bone marrow erythroid precursors with concomitant presence of normal numbers of granulocytic and megakaryocytic lineages. Peptide I corrected the EPO-induced anemia in these animals.

[1] = system: anti-Peptide I antibodies; experiment: Anti-Peptide I antibody assay (ELISA) in patient serum; design: species or system human; settings: 10 patients, after up to 10 doses
Experimental: (§1) The anti-Peptide I antibody assay was performed in the laboratories of the Sponsor using an ELISA method, with a sensitivity of 300 ng/mL [Fan Q., et al. (2006) Exp. Hematol. 34: 1303-11; Woodburn K W, et al. (2007) Exp. Hematol. 35: 1201-8]. Anti-EPO antibodies were measured by radioimmune precipitation assay. To confirm that the patient's antibodies were not cross-reactive with Peptide I, serum from three patients was tested in bone marrow cultures (established from healthy human donors, as previously described [Verhelst D, et al. (2004) Lancet 363: 1768-71]). Culture conditions included 20% of either fetal calf serum as a control or one of the study patient's serum. Cultures included either 1 IU/mL of recombinant human EPO or 0.55 μg/mL of Peptide I (a concentration previously shown to be equivalent to 1 IU/mL of EPO for erythroid growth). Erythroid colonies were counted on day 7.

[2] = system: bone marrow cultures established from healthy human donors; experiment: Bone marrow cultures with patient serum (erythroid colonies); assay type: cell-based
Experimental: as §1

[3] = system: human, bone marrow derived CD34+ cells; experiment: C/BFU-e assay (erythroid colonies); assay type: cell-based; settings: Table 6, 14 days
Experimental: EPO-R signaling stimulates the differentiation of bone marrow stem cells into proliferating red blood cell precursors. This assay measures the ability of test peptides to stimulate the proliferation and differentiation of red blood cell precursors from primary human bone marrow pluripotent stem cells.
For this assay, serial dilutions of test peptide are made in IMDM medium (Gibco) supplemented with 10% FBS (Hyclone). These serial dilutions, or positive control EPO peptide, are then added to methylcellulose to give a final volume of 1.5 mL. The methylcellulose and peptide mixture is then vortexed thoroughly. Aliquots (100,000 cells/mL) of human, bone marrow derived CD34+ cells (Poietics/Cambrex) are thawed. The thawed cells are gently added to 0.1 mL of 1 mg/ml DNAse (Stem Cells) in a 50 mL tube. Next, 40-50 mL IMDM medium is added gently to cells: the medium is added drop by drop along the side of the 50 mL tube for the first 10 mL, and then the remaining volume of medium is slowly dispensed along the side of the tube. The cells are then spun at 900 rpm for 20 min, and the media removed carefully by gentle aspiration. The cells are resuspended in 1 ml of IMDM medium and the cell density per mL is counted on hemacytometer slide (10 μL aliquot of cell suspension on slide, and cell density is the average count×10,000 cells/ml). The cells are then diluted in IMDM medium to a cell density of 15,000 cells/mL. A 100 μL of diluted cells is then added to each 1.5 mL methyl cellulose plus peptide sample (final cell concentration in assay media is 1000 cells/mL), and the mixture is vortexed. Allow the bubbles in the mixture to disappear, and then aspirate 1 mL using blunt-end needle. Add 0.25 mL aspirated mixture from each sample into each of 4 wells of a 24-well plate (Falcon brand). Incubate the plated mixtures at 37° C. under 5% CO2 in a humid incubator for 14 days. Score for the presence of erythroid colonies using a phase microscope (5×-10× objective, final magnification of 100×). The concentration of test peptide at which the number of formed colonies is 90% of maximum, relative to that observed with the EPO positive control, is recorded as the EC90 [See Table 2: C/BFU-e EC90].
For this assay, serial dilutions of test peptide are made in IMDM medium (Gibco) supplemented with 10% FBS (Hyclone). These serial dilutions, or positive control EPO peptide, are then added to methylcellulose to give a final volume of 1.5mL. The methylcellulose and peptide mixture is then vortexed thoroughly. […] The cells are resuspended in 1 ml of IMDM medium and the cell density per mL is counted on hemacytometer slide (10 μL aliquot of cell suspension on slide, and cell density is the average count×10,000 cells/ml). […]

Substance: PEGylated homodimer of peptide monomers (AcG)GLYACHMGPIT(1-nal)VCQPLR(MeG)K (SEQ ID NO: 2), EPO-R agonist (Ac-GGLYACHMGPIT[1Nal]VCQPLR[Sar]K; disulfide 6-15 (inferred); not fully specified (residue 21); printed as (AcG)GLYACHMGPIT(1-nal)VCQPLR(MeG)K; also: PEGylated) [Peptide I]
- maintenance of hemoglobin levels (rat model of PRCA; anemic anti-EPO antibody-positive rats, repeat administrations every 4 weeks): sustained correction of hemoglobin levels
- reticulocytosis (rat model of PRCA; anti-EPO antibody-positive anemic rats, compared to recombinant EPO treated rats): significantly increased
- hemoglobin levels (rat model of PRCA; anti-EPO positive animals versus antibody-negative control rats): greater than hemoglobin levels achieved in the anti-EPO antibody-negative control rats
- correction of antibody-induced anemia (rat model of PRCA; rat model of PRCA): corrected antibody-induced anemia; also recorded: reversed
- anti-Peptide I antibodies in serum [1]: No anti-Peptide I antibodies were detected
- erythroid growth in presence of patient serum ([2]; 20% serum of three patients, 1 IU/mL EPO or 0.55 μg/mL Peptide I, colonies counted day 7): erythroid differentiation was observed
- concentration equivalent to 1 IU/mL of EPO for erythroid growth ([2]; previously shown): 0.55 µg/mL
- EC90 [3]: 3 nM

Reference: patent publication US20090209457A1, “TREATMENT OF ANTI-ERYTHROPOIETIN ANTIBODY-MEDIATED DISORDERS WITH SYNTHETIC PEPTIDE-BASED EPO RECEPTOR AGONISTS” (Affymax, Inc., priority 2008, published 2009)
